Test results: patent publication US12535483B2, “Norovirus-binding peptide” (Kao Corporation, priority 2019, dated 2026)

Key:
[1] = target: GII.17 VLP; assay: KD value by bio-layer interferometry (BLI, BLItz), peptide on SA chip, GII.17 VLP; type: binding, norovirus GII.17 Saitama strain; settings: for Kd: GII.17 VLP 1 and 0.1 mg/mL, 100 μM peptide bound to SA chip, KD calculated from Ka and Kd values; for ka / kd: GII.17 VLP; for ka: association 90 sec; for kd: dissociation in PBS 60 sec
Experimental: (§1) <Calculation of KD Value by Bio-Layer Interferometry: BLI Method>
(§2) The apparatus used was BLItz™ (manufactured by ForteBio). The tip of SA chip (manufactured by ForteBio) was kept in contact with purified water for 1 minute for hydration and was then kept in contact with a 1% BSA aqueous solution for 1 hour for blocking. The SA chip subjected to blocking treatment was set to the measuring unit of the BLItz™ main body, and measurement was performed according to the program shown in Table 14. The peptides of SEQ ID NOs: 43, 48, 52, 59, 131, 143, 150, 154, 155, 156, 163, and 172 were used, and the concentration was adjusted to 100 µM. The concentrations of each of the GII.3 and GII.17 VLPs were adjusted to 1 and 0.1 mg/mL. The measurement data were analyzed using the attached software, and the KD value was calculated based on the Ka and Kd values.

[2] = target: GII.3 VLP; assay: KD value by bio-layer interferometry (BLI, BLItz), peptide on SA chip, GII.3 VLP; type: binding, norovirus GII.3 TCH strain; settings: for Kd: GII.3 VLP 1 and 0.1 mg/mL, 100 μM peptide bound to SA chip, KD calculated from Ka and Kd values; for ka / kd: GII.3 VLP; for ka: association 90 sec; for kd: dissociation in PBS 60 sec
Experimental: as §1, §2

ECMGRRWMSS [No. 154]
Kd [1]: 0.628 µM
ka [1]: 49500 M⁻¹ s⁻¹
kd [1]: 0.00205 s⁻¹
Kd [2]: 123 nM
ka [2]: 141000 M⁻¹ s⁻¹
kd [2]: 0.0173 s⁻¹

SVMVTRSLFG [No. 163]
ka [1]: 110000 M⁻¹ s⁻¹
kd [1]: 0.0185 s⁻¹
Kd [2]: 7.66 nM
ka [2]: 1.03e+06 M⁻¹ s⁻¹
kd [2]: 0.00786 s⁻¹

NFRVPIRFTH [No. 131]
Kd [2]: 157000 nM
ka [2]: 1660 M⁻¹ s⁻¹
kd [2]: 0.262 s⁻¹

GCVGDLYCSA [No. 172]
Kd [2]: 69300 nM
ka [2]: 189 M⁻¹ s⁻¹
kd [2]: 0.0131 s⁻¹

KYRATICHTV [No. 52]
Kd [1]: 0.0179 µM
ka [1]: 1.29e+06 M⁻¹ s⁻¹
kd [1]: 0.0232 s⁻¹
Kd [2]: 13.8 nM
ka [2]: 747000 M⁻¹ s⁻¹
kd [2]: 0.0103 s⁻¹

YVVASKSNRL [No. 143]
Kd [2]: 13.5 nM
ka [2]: 325000 M⁻¹ s⁻¹
kd [2]: 0.0044 s⁻¹

VVGFGRRSLF [No. 156]
Kd [1]: 234 µM
ka [1]: 398 M⁻¹ s⁻¹
kd [1]: 0.0931 s⁻¹
Kd [2]: 1060 nM
ka [2]: 67300 M⁻¹ s⁻¹
kd [2]: 0.0713 s⁻¹

ICSSWFPSVH [No. 48]
Kd [1]: 0.0766 µM
ka [1]: 1.28e+06 M⁻¹ s⁻¹
kd [1]: 0.0978 s⁻¹
Kd [2]: 30.3 nM
ka [2]: 810000 M⁻¹ s⁻¹
kd [2]: 0.0246 s⁻¹

VCVDNDISMS [No. 150]
Kd [1]: 2510 µM
ka [1]: 102 M⁻¹ s⁻¹
kd [1]: 0.255 s⁻¹
Kd [2]: 437 nM
ka [2]: 27000 M⁻¹ s⁻¹
kd [2]: 0.0118 s⁻¹

YRRSKSEIFV [No. 59]
Kd [1]: 0.383 µM
ka [1]: 134000 M⁻¹ s⁻¹
kd [1]: 0.0511 s⁻¹
Kd [2]: 8.87 nM
ka [2]: 805000 M⁻¹ s⁻¹
kd [2]: 0.00714 s⁻¹

YVIRNSDRHN [No. 43]
Kd [1]: 234 µM
ka [1]: 822 M⁻¹ s⁻¹
kd [1]: 0.192 s⁻¹
Kd [2]: 67.2 nM
ka [2]: 1.18e+06 M⁻¹ s⁻¹
kd [2]: 0.0793 s⁻¹

VELFLLTSSC [No. 155]
Kd [2]: 803000 nM
ka [2]: 115 M⁻¹ s⁻¹
kd [2]: 0.0926 s⁻¹
